In brackets after ≈: the same amount, converted by molar mass.
What was measured:
[1] = system: Mycobacterium tuberculosis; assay: Antibacterial activity against Mycobacterium tuberculosis H37Rv assessed as inhibition of bacterial growth incubated for 7 days by alamar blue assay; assay type: functional; settings: 168 h, time 7 day
[2] = Cytotoxicity against African green monkey Vero cells incubated for 48 hrs by MTT assay; assay type: toxicity, cell-based, Chlorocebus sabaeus
Enterococcus faecalis [3] = assay: Antibacterial activity against Enterococcus faecalis ATCC29212 assessed as inhibition of bacterial growth incubated for 18 hrs by microdilution broth assay; assay type: functional
[4] = system: Staphylococcus epidermidis; assay: Antibacterial activity against Staphylococcus epidermidis ATCC12228 assessed as inhibition of bacterial growth incubated for 18 hrs by microdilution broth assay; assay type: functional
Staphylococcus aureus [5] = assay: Antibacterial activity against Staphylococcus aureus ATCC25923 assessed as inhibition of bacterial growth incubated for 18 hrs by microdilution broth assay; assay type: functional
Bacillus subtilis = assay: Antibacterial activity against Bacillus subtilis ATCC6633 assessed as inhibition of bacterial growth incubated for 18 hrs by microdilution broth assay; assay type: functional
Staphylococcus aureus [6] = assay: Antibacterial activity against methicillin resistant Staphylococcus aureus clinical isolate 20-1 assessed as inhibition of bacterial growth incubated for 7 days by alamar blue assay; assay type: functional; settings: clinical isolate 20-1, 168 h, time 7 day
Enterococcus = assay: Antibacterial activity against vancomycin resistant Enterococcus clinical isolate 20-1 assessed as inhibition of bacterial growth incubated for 7 days by alamar blue assay; assay type: functional; settings: clinical isolate 20-1, 168 h, time 7 day
Staphylococcus aureus [7] = assay: Antibacterial activity against methicillin resistant Staphylococcus aureus clinical isolate 20-2 assessed as inhibition of bacterial growth incubated for 7 days by alamar blue assay; assay type: functional; settings: clinical isolate 20-2, 168 h, time 7 day
Enterococcus faecalis [8] = assay: Antibacterial activity against Linezolid resistant Enterococcus faecalis clinical isolate 20-2 assessed as inhibition of bacterial growth incubated for 7 days by alamar blue assay; assay type: functional; settings: clinical isolate 20-2, 168 h, time 7 day
Staphylococcus aureus [9] = assay: Antibacterial activity against vancomycin intermediate Staphylococcus aureus ATCC700699 assessed as inhibition of bacterial growth incubated for 7 days by alamar blue assay; assay type: functional; settings: ATCC700699, 168 h, time 7 day
[10] = system: Staphylococcus epidermidis; assay: Antibacterial activity against methicillin resistant Staphylococcus epidermidis clinical isolate 20-2 assessed as inhibition of bacterial growth incubated for 7 days by alamar blue assay; assay type: functional; settings: clinical isolate 20-2, 168 h, time 7 day
Staphylococcus aureus [11] = assay: Antibacterial activity against Linezolid resistant Staphylococcus aureus clinical isolate 20-1 assessed as inhibition of bacterial growth incubated for 7 days by alamar blue assay; assay type: functional; settings: clinical isolate 20-1, 168 h, time 7 day
Enterococcus faecalis [12] = assay: Antibacterial activity against Linezolid resistant Enterococcus faecalis clinical isolate 20-1 assessed as inhibition of bacterial growth incubated for 7 days by alamar blue assay; assay type: functional; settings: clinical isolate 20-1, 168 h, time 7 day
[13] = system: Staphylococcus epidermidis; assay: Antibacterial activity against methicillin resistant Staphylococcus epidermidis clinical isolate 20-1 assessed as inhibition of bacterial growth incubated for 7 days by alamar blue assay; assay type: functional; settings: clinical isolate 20-1, 168 h, time 7 day
Staphylococcus aureus [14] = assay: Antibacterial activity against Linezolid resistant Staphylococcus aureus clinical isolate 20-2 assessed as inhibition of bacterial growth incubated for 7 days by alamar blue assay; assay type: functional; settings: clinical isolate 20-2, 168 h, time 7 day
[15] = Metabolic stability in human liver microsomes assessed as compound remaining at 10 uM incubated for 60 mins in absence of NADPH by LC-MS/MS analysis; assay type: ADME, Microsome; settings: read-out: Stability
[16] = Metabolic stability in ICR mouse liver microsomes assessed as compound remaining at 10 uM incubated for 60 mins in absence of NADPH by LC-MS/MS analysis; assay type: ADME, Microsome; settings: read-out: Stability
[17] = Metabolic stability in human liver microsomes assessed as substrate remaining at 10 uM incubated for 60 mins in presence of NADPH by LC-MS/MS analysis; assay type: ADME, Microsome; settings: read-out: Stability
[18] = Metabolic stability in ICR mouse liver microsomes assessed as substrate remaining at 10 uM incubated for 60 mins in presence of NADPH by LC-MS/MS analysis; assay type: ADME, Microsome; settings: read-out: Stability

Row | Structure (SMILES) | MIC [1] | IC50 at 48 h [2] | MIC (Enterococcus faecalis [3]) | MIC [4] | MIC (Staphylococcus aureus [5]) | MIC (Bacillus subtilis) | MIC (Staphylococcus aureus [6]) | MIC (Enterococcus) | MIC (Staphylococcus aureus [7]) | MIC (Enterococcus faecalis [8]) | MIC (Staphylococcus aureus [9]) | MIC [10] | MIC (Staphylococcus aureus [11]) | MIC (Enterococcus faecalis [12]) | MIC [13] | MIC (Staphylococcus aureus [14]) | remaining at 1 h, 10 µM [15] | remaining at 1 h, 10 µM [16] | remaining at 1 h, 10 µM [17] | remaining at 1 h, 10 µM [18]
1 | CC(=O)NC[C@@H]1OC(=O)N2Cc3cc(-c4ccnc(C#N)c4)c(F)cc3O[C@@H]12 | 1.85 µg/mL (≈ 4.84 µM) | > 64 µg/mL | 1 µg/mL (≈ 2.62 µM) | 1 µg/mL (≈ 2.62 µM) | 4 µg/mL (≈ 10.5 µM) | 0.25 µg/mL (≈ 0.654 µM) | – | – | – | – | – | – | – | – | – | – | – | – | – | –
2 | CC(=O)NC[C@H]1OC(=O)N2Cc3cc(-c4ccc(-c5nnn(C)n5)nc4)c(F)cc3O[C@@H]12 | 0.54 µg/mL (≈ 1.23 µM) | – | 0.5 µg/mL (≈ 1.14 µM) | – | 0.125 µg/mL (≈ 0.284 µM) | 0.125 µg/mL (≈ 0.284 µM) | – | – | – | – | – | – | – | – | – | – | – | – | – | –
3 | COc1ccc(-c2c(F)cc3c(c2F)CN2C(=O)O[C@@H](CN)[C@@H]2O3)cn1 | 1.82 µg/mL (≈ 5.01 µM) | – | > 64 µg/mL | 64 µg/mL (≈ 176 µM) | 64 µg/mL (≈ 176 µM) | 64 µg/mL (≈ 176 µM) | – | – | – | – | – | – | – | – | – | – | – | – | – | –
4 | COc1cc(-c2cc3c(cc2F)O[C@H]2[C@H](CNC(C)=O)OC(=O)N2C3)ccn1 | 6.51 µg/mL (≈ 16.8 µM) | 36 µg/mL (≈ 92.9 µM) | 1 µg/mL (≈ 2.58 µM) | 2 µg/mL (≈ 5.16 µM) | 4 µg/mL (≈ 10.3 µM) | 0.5 µg/mL (≈ 1.29 µM) | – | – | – | – | – | – | – | – | – | – | – | – | – | –
5 | CC(=O)NC[C@@H]1OC(=O)N2Cc3c(cc(F)c(-c4ccc(C#N)nc4)c3F)O[C@@H]12 | 0.97 µg/mL (≈ 2.42 µM) | > 64 µg/mL | 0.5 µg/mL (≈ 1.25 µM) | 0.125 µg/mL (≈ 0.312 µM) | 1 µg/mL (≈ 2.5 µM) | 0.032 µg/mL (≈ 0.0799 µM) | 1 µg/mL (≈ 2.5 µM) | 1 µg/mL (≈ 2.5 µM) | 1 µg/mL (≈ 2.5 µM) | 2 µg/mL (≈ 5 µM) | 1 µg/mL (≈ 2.5 µM) | 0.5 µg/mL (≈ 1.25 µM) | 8 µg/mL (≈ 20 µM) | 2 µg/mL (≈ 5 µM) | 0.5 µg/mL (≈ 1.25 µM) | 8 µg/mL (≈ 20 µM) | – | – | – | –
6 | COC(=O)NC[C@@H]1OC(=O)N2Cc3cc(-c4ccc(-c5nnn(C)n5)nc4)c(F)cc3O[C@@H]12 | 0.49 µg/mL (≈ 1.08 µM) | 37 µg/mL (≈ 81.2 µM) | 0.5 µg/mL (≈ 1.1 µM) | 0.125 µg/mL (≈ 0.274 µM) | 4 µg/mL (≈ 8.78 µM) | 0.125 µg/mL (≈ 0.274 µM) | 0.25 µg/mL (≈ 0.549 µM) | 0.5 µg/mL (≈ 1.1 µM) | 0.25 µg/mL (≈ 0.549 µM) | 1 µg/mL (≈ 2.2 µM) | 0.5 µg/mL (≈ 1.1 µM) | 0.125 µg/mL (≈ 0.274 µM) | 8 µg/mL (≈ 17.6 µM) | 1 µg/mL (≈ 2.2 µM) | 0.125 µg/mL (≈ 0.274 µM) | 8 µg/mL (≈ 17.6 µM) | 120% | 104% | 110% | 102%
7 | CC(=O)NC[C@@H]1OC(=O)N2Cc3cc(-c4ccn5ncnc5c4)c(F)cc3O[C@@H]12 | 1.43 µg/mL (≈ 3.6 µM) | > 64 µg/mL | 0.5 µg/mL (≈ 1.26 µM) | 2 µg/mL (≈ 5.03 µM) | 8 µg/mL (≈ 20.1 µM) | 0.5 µg/mL (≈ 1.26 µM) | – | – | – | – | – | – | – | – | – | – | – | – | – | –
8 | N#Cc1ccc(-c2c(F)cc3c(c2F)CN2C(=O)O[C@@H](CN)[C@@H]2O3)cn1 | 0.5 µg/mL (≈ 1.4 µM) | 59 µg/mL (≈ 165 µM) | > 64 µg/mL | 64 µg/mL (≈ 179 µM) | > 64 µg/mL | > 64 µg/mL | – | – | – | – | – | – | – | – | – | – | – | – | – | –
9 | N#Cc1ccc(-c2c(F)cc3c(c2F)CN2C(=O)O[C@@H](CN)[C@@H]2O3)cc1 | 0.99 µg/mL (≈ 2.77 µM) | 8 µg/mL (≈ 22.4 µM) | > 64 µg/mL | 32 µg/mL (≈ 89.6 µM) | 64 µg/mL (≈ 179 µM) | 32 µg/mL (≈ 89.6 µM) | – | – | – | – | – | – | – | – | – | – | – | – | – | –
10 | CC(=O)NC[C@H]1OC(=O)N2Cc3cc(-c4ccc(C#N)nc4)c(F)cc3O[C@@H]12 | 0.48 µg/mL (≈ 1.26 µM) | > 64 µg/mL | 0.5 µg/mL (≈ 1.31 µM) | – | 0.125 µg/mL (≈ 0.327 µM) | 0.125 µg/mL (≈ 0.327 µM) | – | – | – | – | – | – | – | – | – | – | – | – | – | –
11 | CC(=O)NC[C@H]1OC(=O)N2Cc3c(cc(F)c(-c4ccc(C#N)nc4)c3F)O[C@H]12 | > 32 µg/mL | – | > 64 µg/mL | > 64 µg/mL | > 64 µg/mL | > 64 µg/mL | – | – | – | – | – | – | – | – | – | – | – | – | – | –
12 | CC(=O)c1ccc(-c2c(F)cc3c(c2F)CN2C(=O)O[C@@H](CN)[C@@H]2O3)cc1 | 0.43 µg/mL (≈ 1.15 µM) | 34 µg/mL (≈ 90.8 µM) | > 64 µg/mL | 64 µg/mL (≈ 171 µM) | 64 µg/mL (≈ 171 µM) | > 64 µg/mL | – | – | – | – | – | – | – | – | – | – | – | – | – | –
13 | CC(=O)NC[C@@H]1OC(=O)N2Cc3cc(-c4ccc(C(C)=O)cc4)c(F)cc3O[C@@H]12 | 0.74 µg/mL (≈ 1.86 µM) | 49 µg/mL (≈ 123 µM) | 1 µg/mL (≈ 2.51 µM) | 2 µg/mL (≈ 5.02 µM) | 8 µg/mL (≈ 20.1 µM) | 0.5 µg/mL (≈ 1.26 µM) | – | – | – | – | – | – | – | – | – | – | – | – | – | –
